Experiments:
[1] = test system: flank sebaceous glands of golden hamster; experiment: In vivo efficacy on acne in female golden hamsters (growth of sebaceous plaques induced by testosterone propionate); settings: for The inhibition rate of the growth of sebaceous plaques (%): 400 μg (1.6%) + testosterone propionate 12 μg, skin smear once a day, 21 days
Description: Activity Assay Example 7: In Vivo Efficacy of Compounds on Acne in Female Golden Hamsters
1. Test object: The flank sebaceous glands of golden hamster are androgen-dependent organs, and testosterone propionate (male hormone) promotes the enlargement of sebaceous glands. This experiment is mainly to study the inhibitory effect of CB-03-01 (positive drug), Flutamide (positive drug) and the compound on sebaceous gland enlargement in female golden hamster acne model (androgen dependence), to further observe the in vivo drug efficacy of the compound, to provide the basis for clinical trials of androgen-induced acne symptoms.
Androgen (Testosterone Propionate-TP); CB-03-01 (Clascoterone, CAS No. 19608-29-8); □ Flutamide (Flutamide, CAS No. 13311-84-7); compound A46 of the present invention.
2.2 Experimental Animals, See Table 4 for Details
2.3 Administration Vehicle: Acetone. 3. Experimental Design
In this experiment, from 72 female golden hamsters, according to the size and body weight of sebaceous glands, golden hamsters were evenly distributed to each group, 6 mice per group, a total of 7 groups, and they were administered continuously for 21 days.
According to the protocol in the table, […] of drug was administered each time, it was evenly smeared on the sebaceous glands, and administered once a day.
Animal grouping and status observation: Before grouping, the body weight was weighed, and the sebaceous glands on both sides were shaved for the observation of the size of sebaceous glands. Animals were observed twice a day in the morning and afternoon during the administration period. On the 21st day after administration, the size of sebaceous glands and the body weight of animals were observed and recorded.
The size of the sebaceous glands is expressed by the area, and the vernier caliper recorded its long side (a) and short side (b), and the area of the sebaceous glands (S) is obtained from the formula for calculating the area of a rectangle. In model group and administration group, ΔS=S−S(vehicle). Growth inhibition rate (%)=(ΔS(acetone testosterone group)−ΔS (administration group))/ΔS(acetone testosterone group)*100%.

[2] = test system: androgenetic alopecia model in C57BL/6J mice; experiment: Hair regeneration effects on androgenic alopecia C57 mouse model (DHT-induced); format: in vivo, C57BL/6N mice; settings: AVER n = 6, score 0-5
Description: Activity Assay Example 8: Hair Regeneration Effects of Compounds on Androgenic Alopecia C57 Mouse Model
The purpose of this study was to compare the effect of the compounds prepared by the present invention as AR protein degraders on hair regrowth in an androgenetic alopecia model in C57BL/6J mice by transdermal application route of administration, and to provide data to support subsequent clinical trials.
2. Experimental Principle
Name of test compound I: dihydrotestosterone DHT; name of test compound II: compound A46 of the present invention; name of test compound III: minoxidil.
4. Experimental animals: strain: C57BL/6N mice; age: 6-7 weeks; gender: male; number of animals: 70 (10 for later use); rearing environment: specific pathogen-free (SPF).
70 mice were deeply anesthetized, and the hair on the back of the mice was removed with an animal shaver, then the depilatory cream (Veet https://item.jd.com/6291245.html) was smeared evenly on the surface of the mice skin, and left 7-10 minutes. Then the hair was gently scraped off with a hair removal scraper against the direction of the hair, and finally the residual hair removal cream on the skin surface was fully washed with water to avoid burning the mice skin.
This experiment was divided into 6 groups, and the DHT administration started on the day of hair removal, A46 is administered on day 2 after hair removal and is counted as day 1 (the day of hair removal is counted as day 0).
5.3 Test Compound Preparation Method
5.4 Observation and Measurement Indicators • 1) Body weight/g: From the first day of administration, body weight was weighed and recorded twice a week. • 2) Hair regeneration (anagen) score (0 points: no darkening of skin color in all areas; 1 point: darkening of gray skin color areas; 2 points: visible short hair; 3 points: thin hair; 4 points: thick hair; 5 points: full hair growth).
All mice were photographed on day 1 after hair removal, and then photographed and scored daily from day 4 until the end of the experiment. • 3) At the end of the experiment, skin and blood collection operations were performed as needed. 5.5 Criteria for Drug Withdrawal and Experiment Termination
Data are presented as average±standard error (AVE±SEM). One-way multi-level analysis of variance was used for statistics. The comparison between each drug group and the model group was performed by Stundent's t-test or rank sum test, and the p value was calculated. p<0.05 means there is a significant difference between the two groups, p<0.01 means there is a extremely significant difference between the two groups.

AR = biological target: T1, AR (Homo sapiens, UniProt P10275, T878A); experiment: Effects of compounds on AR expression in LNCaP cells (ELISA, DC50); format: cell-based; set-up: Measurement of the Effects of Drugs on the Expression of AR in Cells by ELISA Method; endogenous in cells; host or cells: LNCaP; settings: 24 hours of drug treatment, AR by ELISA
T1 sequence (P10275 1-920 T878A): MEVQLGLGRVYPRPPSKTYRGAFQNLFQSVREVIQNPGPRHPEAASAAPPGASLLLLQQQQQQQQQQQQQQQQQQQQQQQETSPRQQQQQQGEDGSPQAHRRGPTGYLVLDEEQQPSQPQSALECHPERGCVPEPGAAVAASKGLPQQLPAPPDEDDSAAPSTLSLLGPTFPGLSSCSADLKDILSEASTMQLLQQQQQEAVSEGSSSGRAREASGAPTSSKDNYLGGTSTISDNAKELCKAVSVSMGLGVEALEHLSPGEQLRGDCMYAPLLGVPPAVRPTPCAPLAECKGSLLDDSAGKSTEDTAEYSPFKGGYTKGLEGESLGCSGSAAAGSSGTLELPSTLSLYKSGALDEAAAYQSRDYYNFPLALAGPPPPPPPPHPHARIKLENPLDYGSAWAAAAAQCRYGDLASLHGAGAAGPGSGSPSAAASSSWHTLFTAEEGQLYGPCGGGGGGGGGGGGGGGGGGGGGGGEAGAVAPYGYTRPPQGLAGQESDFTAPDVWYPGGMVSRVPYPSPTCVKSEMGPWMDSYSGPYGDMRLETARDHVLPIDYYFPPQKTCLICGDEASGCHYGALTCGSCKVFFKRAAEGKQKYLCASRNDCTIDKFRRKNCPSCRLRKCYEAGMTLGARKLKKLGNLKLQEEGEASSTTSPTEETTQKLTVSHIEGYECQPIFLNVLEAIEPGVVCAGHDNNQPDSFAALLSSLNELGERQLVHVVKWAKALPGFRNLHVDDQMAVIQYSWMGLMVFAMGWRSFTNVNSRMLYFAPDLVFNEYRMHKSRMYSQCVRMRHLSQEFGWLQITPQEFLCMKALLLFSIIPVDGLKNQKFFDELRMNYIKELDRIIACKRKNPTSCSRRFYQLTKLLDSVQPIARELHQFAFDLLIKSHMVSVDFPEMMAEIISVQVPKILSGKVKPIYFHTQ
Summary of the method: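 LNCaP cells at about 15,000/well were treated for 24 h with compound at 0.0001–2 μmol/L final. AR in cell lysates was measured by ELISA (OD450). Inhibition was relative to DMSO control after blank subtraction, and DC50 was calculated from it.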

[3] = test system: LNCaP (human prostate cancer); experiment: Hormone-dependent prostate cancer long-term efficacy test (LNCaP xenograft, tumor growth inhibition); format: in vivo, SCID nude mice
Procedure: Activity Assay Example 5: Hormone-Dependent Prostate Cancer Long-Term Efficacy Test
1. Tumor Model Establishment
1.5*10^7 LNCaP (human prostate cancer) was purchased from the Chinese Academy of Sciences Cell Bank and cultured in RPMI-1640 medium containing 10% fetal bovine serum. The cells were grown to 80-90% confluence and passaged in about 4-5 days, and the cells were grown to a sufficient amount and then inoculated into nude mice.
18-20 g SCID nude mice aged 6-7 weeks old were purchased from Beijing Vital River Co., Ltd. Mice were kept in SPF animal room, in which the temperature was 20-25° C., and the humidity was 40%-70%, and light/dark was 12 hours a day respectively. Animals were kept in separate cages, 5 per cage, with free access to food and water, in which the feed was sterilized by irradiation, and the water was autoclaved. The mice were grouped for experiment when raised to 10˜11 weeks old. LNCaP tumor cells were directly inoculated into the right back of nude mice.
3. Grouping and Administration Schedule Design
When the average tumor volume reached 200-300 mm^3, the tumors with good shape were selected for random number grouping according to the tumor volume, and the selected animals were marked and divided into 5 groups, 5 per group. Administration vehicle: 5% EtOH, 5% solutolHS15 in PBS. The corresponding dose of compound was administered by gavage.
Data are presented as mean±standard deviation (Mean±SD). One-way multi-level analysis of variance was used for statistics, and the comparison between each drug group and the model group was performed by Stundent's t-test or rank sum test, and the p value was calculated. p<0.05 means there is a significant difference between the two groups.

For CC(C)C(=O)Nc1ccc([N+](=O)[O-])c(C(F)(F)F)c1 [Flutamide, reference compound], the “The inhibition rate of the growth of sebaceous plaques (%)” value [1] was 40.74%.
For CCC(=O)O[C@H]1CC[C@H]2[C@@H]3CCC4=CC(=O)CC[C@]4(C)[C@H]3CC[C@]12C [testosterone propionate, reference compound], the “area of sebaceous plaques” value ([1]; model group, 12 μg TP skin smear, after 21 days) was 40-50 mm^2.
Nc1cc(N2CCCCC2)nc(N)[n+]1[O-] [minoxidil, reference compound] was tested, and the Hair regeneration score ([2]; 5% skin smear BID + DHT 30 mpk, 0 day) was 0.00, the Hair regeneration score ([2]; 5% skin smear BID + DHT 30 mpk, 3 days) was 0.00 and the Hair regeneration score ([2]; 5% skin smear BID + DHT 30 mpk, 5 days) was 0.00. For the same compound, the Hair regeneration score ([2]; 5% skin smear BID + DHT 30 mpk, 7 days) was 0.00, the Hair regeneration score ([2]; 5% skin smear BID + DHT 30 mpk, 10 days) was 0.33 and the Hair regeneration score ([2]; 5% skin smear BID + DHT 30 mpk, 12 days) was 0.67. The Hair regeneration score ([2]; 5% skin smear BID + DHT 30 mpk, 14 days) was 1.67 and the Hair regeneration score ([2]; 5% skin smear BID + DHT 30 mpk, 17 days) was 2.33.
With Cc1ncsc1-c1ccc(CNC(=O)[C@@H]2C[C@@H](O)CN2C(=O)[C@@H](NC(=O)COCCCCOc2ccc(-c3ncc(N4C(=S)N(c5ccc(C#N)c(C(F)(F)F)c5F)C(=O)C4(C)C)cc3F)c(C(F)(F)F)c2)C(C)(C)C)cc1 [Compound A88] the DC50 (AR) was 55 nM, the “Tumor growth inhibition rate” value ([3]; 10 mpk by gavage, 3 days) was 19.81% and the “Tumor growth inhibition rate” value ([3]; 10 mpk by gavage, 7 days) was 38.44%. The “Tumor growth inhibition rate” value ([3]; 10 mpk by gavage, 10 days) was 31.33%, the “Tumor growth inhibition rate” value ([3]; 10 mpk by gavage, 14 days) was 13.15% and the “Tumor growth inhibition rate” value ([3]; 25 mpk by gavage, 3 days) was 14.98%. For the same compound, the “Tumor growth inhibition rate” value ([3]; 25 mpk by gavage, 7 days) was 36.36%, the “Tumor growth inhibition rate” value ([3]; 25 mpk by gavage, 10 days) was 37.51% and the “Tumor growth inhibition rate” value ([3]; 25 mpk by gavage, 14 days) was 24.68%. The “Tumor growth inhibition rate” value ([3]; 50 mpk by gavage, 3 days) was 22.30%, the “Tumor growth inhibition rate” value ([3]; 50 mpk by gavage, 7 days) was 51.85% and the “Tumor growth inhibition rate” value ([3]; 50 mpk by gavage, 10 days) was 42.62%. For the same compound, the “Tumor growth inhibition rate” value ([3]; 50 mpk by gavage, 14 days) was 24.47%.
C[C@]12CCC(=O)C[C@@H]1CC[C@@H]1[C@@H]2CC[C@]2(C)[C@@H](O)CC[C@@H]12 [DHT, dihydrotestosterone, reference compound] showed a Hair regeneration score ([2]; DHT 30 mpk subcutaneous alone (model), 0 day) of 0.00, a Hair regeneration score ([2]; DHT 30 mpk subcutaneous alone (model), 3 days) of 0.00 and a Hair regeneration score ([2]; DHT 30 mpk subcutaneous alone (model), 5 days) of 0.00. The Hair regeneration score ([2]; DHT 30 mpk subcutaneous alone (model), 7 days) was 0.00, the Hair regeneration score ([2]; DHT 30 mpk subcutaneous alone (model), 10 days) was 0.00 and the Hair regeneration score ([2]; DHT 30 mpk subcutaneous alone (model), 12 days) was 0.00. For the same compound, the Hair regeneration score ([2]; DHT 30 mpk subcutaneous alone (model), 14 days) was 0.17 and the Hair regeneration score ([2]; DHT 30 mpk subcutaneous alone (model), 17 days) was 0.5.
For CCC(=O)O[C@]1(C(=O)CO)CC[C@H]2[C@@H]3CCC4=CC(=O)CC[C@]4(C)[C@H]3CC[C@@]21C [CB-03-01, Clascoterone, reference compound], the “The inhibition rate of the growth of sebaceous plaques (%)” value [1] was 69.53%.

— patent US12606552B2, “Bifunctional compound, preparation method therefor, and use thereof” (SUZHOU KINTOR PHARMACEUTICALS, INC., priority 2020, dated 2026)
